# Assay results reported in ChEMBL document CHEMBL5241137, “Evaluation of carboxylic acid-derivatized corroles as novel gram-positive antibacterial agents under non-photodynamic inactivation conditions” (2023).
# Columns and labels:
# Staphylococcus aureus [1] = test: Antibacterial activity against methicillin-resistant Staphylococcus aureus […] assessed as reduction in bacterial growth measured under non-photodynamic inactivation condition; assay type: functional; details: light or radiation study
# Staphylococcus aureus [2] = test: Antibacterial activity against methicillin-sensitive Staphylococcus aureus ATCC 29213 assessed as reduction in bacterial growth measured under non-photodynamic inactivation condition; assay type: functional; details: ATCC 29213, light or radiation study
SMILES,MIC (Staphylococcus aureus [1]) [µg/mL],MIC (Staphylococcus aureus [2]) [µg/mL]
CO[C@@]1(NC(=O)Cc2cccs2)C(=O)N2C(C(=O)O)=C(COC(N)=O)CS[C@@H]21 [CEFOXITIN],25,3.12
CN[C@H](CC(C)C)C(=O)N[C@H]1C(=O)N[C@@H](CC(N)=O)C(=O)N[C@H]2C(=O)N[C@H]3C(=O)N[C@H](C(=O)N[C@H](C(=O)O)c4cc(O)cc(O)c4-c4cc3ccc4O)[C@H](O)c3ccc(c(Cl)c3)Oc3cc2cc(c3O[C@@H]2O[C@H](CO)[C@@H](O)[C@H](O)[C@H]2O[C@H]2C[C@](C)(N)[C@H](O)[C@H](C)O2)Oc2ccc(cc2Cl)[C@H]1O [VANCOMYCIN],0.39,0.39
O=S(=O)(O)CCNc1c(F)c(F)c(-c2c3nc(c(-c4c(F)c(F)c(NCCS(=O)(=O)O)c(F)c4F)c4ccc([nH]4)c4ccc([nH]4)c(-c4c(F)c(F)c(NCCS(=O)(=O)O)c(F)c4F)c4ccc2[nH]4)C=C3)c(F)c1F,100,> 100
Fc1cc(F)c(F)c(-c2c3nc(c(-c4c(F)c(F)c(F)c(F)c4F)c4ccc([nH]4)c(-c4c(F)c(F)cc(F)c4F)c4ccc([nH]4)c4ccc2[nH]4)C=C3)c1F,12.5,25
Cc1c(C(=O)O)[nH]c(C(c2ccccc2)c2[nH]c(C(=O)O)c(C)c2C)c1C,50,100
O=C(O)c1ccc(-c2c3nc(c(-c4ccc(C(=O)O)cc4)c4ccc([nH]4)c4ccc([nH]4)c(-c4ccc(C(=O)O)cc4)c4ccc2[nH]4)C=C3)cc1,100,100
Cc1ccc(-c2c3nc(c(-c4cc(C(=O)O)cc(C(=O)O)c4)c4ccc([nH]4)c4ccc([nH]4)c(-c4cc(C(=O)O)cc(C(=O)O)c4)c4ccc2[nH]4)C=C3)cc1,12.5,12.5
O=C(O)c1ccc(C(c2ccc[nH]2)c2ccc[nH]2)cc1,50,50
Cc1ccc(-c2c3nc(c(-c4ccc(C(=O)O)cc4)c4ccc([nH]4)c(-c4ccc(C)cc4)c4ccc([nH]4)c4ccc2[nH]4)C=C3)cc1,100,100
